Target: T1, PDE4B (human recombinant) (Homo sapiens, UniProt Q07343)
T1 construct: made in house
Test: Inhibition of PDE4B activity: SPA and/or Fluorescence Polarisation (FP) assay
Format: biochemical
Conditions: one reading (n=1) or average of 2 or more readings, read-out: PDE4B pIC50 (±about 0.5) (converted)
How it was run: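 Human recombinant PDE4B activity measured by SPA with [3H]cAMP at about 10 nM, 1 h at ambient temperature, enzyme set for ≤20% substrate hydrolysis, or by IMAP FP with Fl-cAMP at about 40 nM, 40 min at ambient temperature under linear conditions. Inhibition curves fitted; values reported as pIC50.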

T1 sequence (Q07343 1-564 isoform Q07343-2): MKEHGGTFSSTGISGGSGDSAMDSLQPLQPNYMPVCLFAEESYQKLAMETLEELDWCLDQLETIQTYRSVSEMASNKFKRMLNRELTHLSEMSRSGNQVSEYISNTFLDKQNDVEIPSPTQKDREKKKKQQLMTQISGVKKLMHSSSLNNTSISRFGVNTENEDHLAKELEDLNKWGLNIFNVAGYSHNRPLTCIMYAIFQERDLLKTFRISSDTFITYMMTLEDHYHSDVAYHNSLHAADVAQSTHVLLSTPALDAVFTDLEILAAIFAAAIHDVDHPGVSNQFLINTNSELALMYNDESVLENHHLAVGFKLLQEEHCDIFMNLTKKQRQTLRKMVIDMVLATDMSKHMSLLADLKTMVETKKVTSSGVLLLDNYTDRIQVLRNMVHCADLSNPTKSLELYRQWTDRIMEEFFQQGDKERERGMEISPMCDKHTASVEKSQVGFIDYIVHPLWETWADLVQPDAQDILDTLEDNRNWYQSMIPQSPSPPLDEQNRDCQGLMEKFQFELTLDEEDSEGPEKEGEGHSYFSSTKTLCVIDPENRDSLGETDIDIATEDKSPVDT

`CCn1ncc2c(NC3CCOCC3)c(CN3Cc4ccc(C(F)(F)F)cc4C3=O)c(C)nc21` [Example 316, 2-{[1-ethyl-6-methyl-4-(tetrahydro-2H-pyran-4-ylamino)-1H-pyrazolo[3,4-b]pyridin-5-yl]methyl}-6-(trifluoromethyl)-2,3-dihydro-1H-isoindol-1-one] and `CCc1nc2c(cnn2CC)c(NC2CCOCC2)c1CN1Cc2ccc(C(F)(F)F)cc2C1=O` [Example 317, 2-{[1,6-diethyl-4-(tetrahydro-2H-pyran-4-ylamino)-1H-pyrazolo[3,4-b]pyridin-5-yl]methyl}-6-(trifluoromethyl)-2,3-dihydro-1H-isoindol-1-one] fall in the same range of IC50: 0.01 to 0.1 nM for the first, 0.01 to 0.1 nM for the second.

First: CCc1nc2c(cnn2CC)c(NC2CCOCC2)c1CNC(=O)c1ccc(N2CCCCCCC2)cc1 [Example 187, N-{[1,6-diethyl-4-(tetrahydro-2H-pyran-4-ylamino)-1H-pyrazolo[3,4-b]pyridin-5-yl]methyl}-4-(hexahydro-1(2H)-azocinyl)benzamide]
Second: CCc1nc2c(cnn2CC)c(NC2CCOCC2)c1CNC(=O)c1ccc(NC(C)=O)cc1 [Example 194, 4-(acetylamino)-N-{[1,6-diethyl-4-(tetrahydro-2H-pyran-4-ylamino)-1H-pyrazolo[3,4-b]pyridin-5-yl]methyl}benzamide]
The IC50 of the first is higher: 0.126 to 1 nM for the first, 0.01 to 0.1 nM for the second.

`CCc1nc2c(cnn2CC)c(NC2CCOCC2)c1CNC(=O)c1cc(S(=O)(=O)N(CC)CC)ccc1OC` [Example 185, 5-[(diethylamino)sulfonyl]-N-{[1,6-diethyl-4-(tetrahydro-2H-pyran-4-ylamino)-1H-pyrazolo[3,4-b]pyridin-5-yl]methyl}-2-(methyloxy)benzamide] and `CCc1nc2c(cnn2CC)c(NC2CCOCC2)c1CNC(=O)c1cc(S(=O)(=O)NCC2CC2)ccc1OC` [Example 183, 5-{[(cyclopropylmethyl)amino]sulfonyl}-N-{[1,6-diethyl-4-(tetrahydro-2H-pyran-4-ylamino)-1H-pyrazolo[3,4-b]pyridin-5-yl]methyl}-2-(methyloxy)benzamide] fall in the same range of IC50: 0.01 to 0.1 nM for the first, 0.01 to 0.1 nM for the second.

`CCc1nc2c(cnn2CC)c(NC2CCOCC2)c1CNC(=O)c1cnc(C(C)C)nc1` [Example 346, N-{[1,6-diethyl-4-(tetrahydro-2H-pyran-4-ylamino)-1H-pyrazolo[3,4-b]pyridin-5-yl]methyl}-2-(1-methylethyl)-5-pyrimidinecarboxamide] and `CCn1ncc2c(NC3CCOCC3)c(CNC(=O)c3cnc(C(C)C)nc3)c(C)nc21` [Example 347, N-{[1-ethyl-6-methyl-4-(tetrahydro-2H-pyran-4-ylamino)-1H-pyrazolo[3,4-b]pyridin-5-yl]methyl}-2-(1-methylethyl)-5-pyrimidinecarboxamide] fall in the same range of IC50: 0.126 to 1 nM for the first, 0.126 to 1 nM for the second.

First: CCn1ncc2c(NC3CCOCC3)c(CNC(=O)c3cnc(C(C)(C)C)nc3)c(C)nc21 [Example 336, 2-(1,1-dimethylethyl)-N-{[1-ethyl-6-methyl-4-(tetrahydro-2H-pyran-4-ylamino)-1H-pyrazolo[3,4-b]pyridin-5-yl]methyl}-5-pyrimidinecarboxamide]
Second: CCn1ncc2c(NC3CCOCC3)c(CNC(=O)c3ccc(C(C)(C)C)cc3O)c(C)nc21 [Example 285, 4-(1,1-dimethylethyl)-N-{[1-ethyl-6-methyl-4-(tetrahydro-2H-pyran-4-ylamino)-1H-pyrazolo[3,4-b]pyridin-5-yl]methyl}-2-hydroxybenzamide]
The IC50 of the first is higher: 0.126 to 1 nM for the first, 0.01 to 0.1 nM for the second.

`CCc1nc2c(cnn2CC)c(NC2CCOCC2)c1CNC(=O)c1cccc2c1OCC2` [Example 161, N-{[1,6-diethyl-4-(tetrahydro-2H-pyran-4-ylamino)-1H-pyrazolo[3,4-b]pyridin-5-yl]methyl}-2,3-dihydro-1-benzofuran-7-carboxamide] and `CCc1nc2c(cnn2CC)c(NC2CCOCC2)c1CNC(=O)c1ccc(C)cc1O` [Example 254, N-{[1,6-diethyl-4-(tetrahydro-2H-pyran-4-ylamino)-1H-pyrazolo[3,4-b]pyridin-5-yl]methyl}-2-hydroxy-4-methylbenzamide] fall in the same range of IC50: 0.01 to 0.1 nM for the first, 0.01 to 0.1 nM for the second.

`CCn1ncc2c(NC3CCN(C(N)=O)CC3)c(CNC(=O)c3ccc(C)c4c3OCC4)c(C)nc21` [Example 274, 4-{[1-ethyl-6-methyl-5-({[(4-methyl-2,3-dihydro-1-benzofuran-7-yl)carbonyl]amino}methyl)-1H-pyrazolo[3,4-b]pyridin-4-yl]amino}-1-piperidinecarboxamide] and `CCn1ncc2c(NC3CCN(C(N)=O)CC3)c(CNC(=O)c3ccccc3O)c(C)nc21` [Example 260, 4-{[1-ethyl-5-({[(2-hydroxyphenyl)carbonyl]amino}methyl)-6-methyl-1H-pyrazolo[3,4-b]pyridin-4-yl]amino}-1-piperidinecarboxamide] fall in the same range of IC50: 0.01 to 0.1 nM for the first, 0.01 to 0.1 nM for the second.

First: CCn1ncc2c(NC3CCOCC3)c(CNC(=O)c3cncs3)c(C)nc21 [Example 226, N-{[1-ethyl-6-methyl-4-(tetrahydro-2H-pyran-4-ylamino)-1H-pyrazolo[3,4-b]pyridin-5-yl]methyl}-1,3-thiazole-5-carboxamide]
Second: CCn1ncc2c(NC3CCOCC3)c(CNC(=O)c3ccc(C)cc3O)c(C)nc21 [Example 281, N-{[1-ethyl-6-methyl-4-(tetrahydro-2H-pyran-4-ylamino)-1H-pyrazolo[3,4-b]pyridin-5-yl]methyl}-2-hydroxy-4-methylbenzamide]
The IC50 of the first is higher: 0.126 to 1 nM for the first, 0.01 to 0.1 nM for the second.

First: CCn1ncc2c(NC3CCOCC3)c(CNC(=O)c3ccc(S(C)(=O)=O)cc3)c(C)nc21 [Example 124, N-{[1-ethyl-6-methyl-4-(tetrahydro-2H-pyran-4-ylamino)-1H-pyrazolo[3,4-b]pyridin-5-yl]methyl}-4-(methylsulfonyl)benzamide]
Second: CCn1ncc2c(NC3CCOCC3)c(CNC(=O)c3ccc(C(C)C)cc3)c(C)nc21 [Example 278, N-{[1-ethyl-6-methyl-4-(tetrahydro-2H-pyran-4-ylamino)-1H-pyrazolo[3,4-b]pyridin-5-yl]methyl}-4-(1-methylethyl)benzamide]
The IC50 of the first is higher: 0.126 to 1 nM for the first, 0.01 to 0.1 nM for the second.

`CCn1ncc2c(NC3CCOCC3)c(CNC(=O)c3ccc4c(c3)CCCS4(=O)=O)c(C)nc21` [Example 287, N-{[1-ethyl-6-methyl-4-(tetrahydro-2H-pyran-4-ylamino)-1H-pyrazolo[3,4-b]pyridin-5-yl]methyl}-3,4-dihydro-2H-1-benzothiopyran-6-carboxamide 1,1-dioxide] and `CCn1ncc2c(NC3CCOCC3)c(CNC(=O)c3ccc4c(c3)CCC4)c(C)nc21` [Example 284, N-{[1-ethyl-6-methyl-4-(tetrahydro-2H-pyran-4-ylamino)-1H-pyrazolo[3,4-b]pyridin-5-yl]methyl}-2,3-dihydro-1H-indene-5-carboxamide] fall in the same range of IC50: 0.126 to 1 nM for the first, 0.126 to 1 nM for the second.

First: CCc1nc2c(cnn2CC)c(NC2CCN(C(N)=O)CC2)c1CNC(=O)c1ccc(C2CCCC2)cc1 [Example 210, 4-{[5-({[(4-cyclopentylphenyl)carbonyl]amino}methyl)-1,6-diethyl-1H-pyrazolo[3,4-b]pyridin-4-yl]amino}-1-piperidinecarboxamide]
Second: CCn1ncc2c(NC3CCOCC3)c(CNC(=O)c3ccc(N(C)C)cc3)cnc21 [Example 88, 4-(dimethylamino)-N-{[1-ethyl-4-(tetrahydro-2H-pyran-4-ylamino)-1H-pyrazolo[3,4-b]pyridin-5-yl]methyl}benzamide]
The IC50 of the first is lower: 0.01 to 0.1 nM for the first, 0.126 to 1 nM for the second.

Reference: patent US20090131431A1, “Pyrazolo[3,4-b]pyridine compounds, and their use as a PDE4 inhibitors” (priority 2005, published 2009)
